Test system: HPV 16
Experiment: HPV 16 episome DNA levels in W12E cells by Q-PCR (Taqman)
Format: cell-based, Human papilloma virus
Conditions: for IC50: effective (pseudo) IC50, 50% reduction in HPV DNA relative to vehicle (0.1% DMSO), read-out: HPV-16 IC50
Method: Cells maintaining HPV 16 DNA were cultured for 72 hours in the presence of cidofovir, interferon γ or polyamide. Viral DNA was then quantified using real-time PCR and compared to vehicle (DMSO)-treated control cultures.
Compounds were initially tested for effects on HPV 16 episome DNA levels in W12E cells by Q-PCR (Taqman™) over 3 concentration ranges (0.1, 1 and 10 μM). W12E cells are a cervical keratinocyte cell line originally identified by M. Stanley (Cambridge University), and later optimized and provided by P. Lambert (U. of Wisconsin). […] In all cases (initial tests and follow-up IC50 tests), dose testing was performed in triplicate. […] Furthermore, all experiments were conducted in triplicate, multiple times. The data were then combined, pseudo or effective IC50 values calculated, and variance determined to reveal the fit of the data to the model and its reliability.
Keratinocytes that maintain HPV 16 episomes were treated with increasing concentrations of polyamides.

Row | Molecule | IC50 [µM] | antiviral activity in this study
1 | ImPPPPγPPPPPβTa-BOFLX [Polyamide 1008] | > 10 | 
2 | CN(C)CCCNC(=O)CCNC(=O)c1cc(NC(=O)c2cc(NC(=O)c3cc(NC(=O)c4cc(NC(=O)c5cc(NC(=O)CCCNC(=O)c6cc(NC(=O)c7cc(NC(=O)c8cc(NC(=O)c9cc(NC(=O)c%10nccn%10C)cn9C)cn8C)cn7C)cn6C)cn5C)cn4C)cn3C)cn2C)cn1C [Polyamide 1010, ImPPPPγPPPPPβDp] | > 10 | 
3 | CN(C)CCCNC(=O)CCNC(=O)c1cc(NC(=O)c2nc(NC(=O)c3nc(NC(=O)c4cc(NC(=O)CCCNC(=O)c5nc(NC(=O)c6cc(NC(=O)c7cc(NC(=O)c8nccn8C)cn7C)cn6C)cn5C)cn4C)cn3C)cn2C)cn1C [Polyamide 1017, ImPPIγPIIPβDp] | > 10 | 
4 | CN(C)CCCNC(=O)CCNC(=O)c1cc(NC(=O)c2nc(NC(=O)c3cc(NC(=O)c4cc(NC(=O)c5nc(NC(=O)CCCNC(=O)c6cc(NC(=O)c7cc(NC(=O)c8nc(NC(=O)CCNC(=O)c9nccn9C)cn8C)cn7C)cn6C)cn5C)cn4C)cn3C)cn2C)cn1C [Polyamide 1018, ImβIPPγIPPIPβDp] | > 10 | 
5 | CN(C)CCCNC(=O)CCNC(=O)c1cc(NC(=O)c2cc(NC(=O)c3cc(NC(=O)c4cc(NC(=O)c5cc(NC(=O)CCCNC(=O)c6cc(NC(=O)c7nc(NC(=O)c8nc(NC(=O)CCNC(=O)c9nccn9C)cn8C)cn7C)cn6C)cn5C)cn4C)cn3C)cn2C)cn1C [Polyamide 1016, ImβIIPγPPPPPβDp] | > 10 | 
6 | ImPPPPγPPPPPβTa-FITC [Polyamide 1007] | > 10 | 
7 | CN(C)CCCNC(=O)CCNC(=O)c1cc(NC(=O)c2cc(NC(=O)c3cc(NC(=O)c4nc(NC(=O)CCCNC(=O)c5cc(NC(=O)c6nc(NC(=O)c7nc(NC(=O)c8nccn8C)cn7C)cn6C)cn5C)cn4C)cn3C)cn2C)cn1C [Polyamide 1012, ImIIPγIPPPβDp] | > 10 | 
8 | CN(C)CCCNC(=O)CCNC(=O)c1cc(NC(=O)c2cc(NC(=O)c3cc(NC(=O)c4cc(NC(=O)c5cc(NC(=O)c6cc(NC=O)cn6C)cn5C)cn4C)cn3C)cn2C)cn1C [Polyamide 1039, OHC-PPPPPPβDp] | > 10 | 
9 | CN(C)CCCNC(=O)CCNC(=O)CCNC(=O)c1cc(NC(=O)c2cc(NC(=O)c3cc(NC(=O)CCNC(=O)c4cc(NC(=O)c5cc(NC(=O)c6cc(NC(=O)CCCNC(=O)c7cc(NC(=O)c8cc(NC(=O)c9cc(NC(=O)CCNC(=O)c%10cc(NC(=O)c%11cc(NC(=O)c%12cc(NC(=O)c%13nccn%13C)cn%12C)cn%11C)cn%10C)cn9C)cn8C)cn7C)cn6C)cn5C)cn4C)cn3C)cn2C)cn1C [Polyamide 1025, ImPPPβPPPγPPPβPPPββDp] | > 10 | 
10 | CN(C)CCCNC(=O)CCNC(=O)c1cc(NC(=O)c2cc(NC(=O)c3cc(NC(=O)CCNC(=O)c4cc(NC(=O)c5cc(NC(=O)c6cc(NC(=O)CCNC(=O)c7cc(NC(=O)CCNC(=O)CCCNC(=O)c8nc(NC(=O)c9cc(NC(=O)c%10cc(NC(=O)CCNC(=O)c%11cc(NC(=O)c%12nc(NC(=O)c%13cc(NC(=O)CCNC(=O)c%14cc(NC(=O)c%15cc(NC(=O)c%16nccn%16C)cn%15C)cn%14C)cn%13C)cn%12C)cn%11C)cn%10C)cn9C)cn8C)cn7C)cn6C)cn5C)cn4C)cn3C)cn2C)cn1C [Polyamide 1041, ImPPβPIPβPPIγβPβPPPβPPPβDp] | > 10 | 
11 | CN(C)CCCNC(=O)CCNC(=O)c1cc(NC(=O)c2cc(NC(=O)c3cc(NC(=O)c4cc(NC=O)cn4C)cn3C)cn2C)cn1C [Polyamide 1038, OHC-PPPPβDp] | > 10 | 
12 | CN(C)CCCNC(=O)CCNC(=O)c1cc(NC(=O)c2cc(NC(=O)c3cc(NC(=O)c4cc(NC(=O)CCCNC(=O)c5nc(NC(=O)c6cc(NC(=O)c7cc(NC(=O)c8nccn8C)cn7C)cn6C)cn5C)cn4C)cn3C)cn2C)cn1C [Polyamide 1011, ImPPIγPPPPβDp] | > 10 | 
13 | CN(C)CCCNC(=O)CCNC(=O)c1cc(NC(=O)c2nc(NC(=O)c3cc(NC(=O)c4cc(NC(=O)CCCNC(=O)c5cc(NC(=O)c6cc(NC(=O)c7cc(NC(=O)c8nccn8C)cn7C)cn6C)cn5C)cn4C)cn3C)cn2C)cn1C [Polyamide 1013, ImPPPγPPIPβDp] | > 10 | 
14 | CN(CCCN)CCCNC(=O)CCNC(=O)c1cc(NC(=O)c2cc(NC(=O)c3cc(NC(=O)c4cc(NC(=O)c5cc(NC(=O)CCCNC(=O)c6cc(NC(=O)c7cc(NC(=O)c8cc(NC(=O)c9cc(NC(=O)c%10nccn%10C)cn9C)cn8C)cn7C)cn6C)cn5C)cn4C)cn3C)cn2C)cn1C [Polyamide 1005, ImPPPPγPPPPPβTa] | > 10 | 
15 | CN(C)CCCNC(=O)CCNC(=O)c1cc(NC(=O)c2cc(NC(=O)c3cc(NC(=O)c4nc(NC(=O)CCCNC(=O)c5cc(NC(=O)c6nc(NC(=O)CCNC(=O)c7nccn7C)cn6C)cn5C)cn4C)cn3C)cn2C)cn1C [Polyamide 1014, ImβIPγIPPPβDp] | > 10 | 
16 | CN(C)CCCNC(=O)CCNC(=O)c1cc(NC(=O)c2cc(NC(=O)c3cc(NC(=O)c4cc(NC(=O)CCCNC(=O)c5cc(NC(=O)c6nc(NC(=O)CCNC(=O)c7nccn7C)cn6C)cn5C)cn4C)cn3C)cn2C)cn1C [Polyamide 1015, ImβIPγPPPPβDp] | > 10 | 
17 | CN(C)CCCNC(=O)CCNC(=O)c1cc(NC(=O)c2cc(NC(=O)c3nc(NC(=O)c4cc(NC(=O)CCCNC(=O)c5nc(NC(=O)c6cc(NC(=O)c7nc(NC(=O)c8nccn8C)cn7C)cn6C)cn5C)cn4C)cn3C)cn2C)cn1C [Polyamide 1021, ImIPIγPIPPβDp] | > 10 | 
18 | CN(C)CCCNC(=O)CCNC(=O)c1cc(NC(=O)c2cc(NC(=O)c3cc(NC(=O)CCNC(=O)c4cc(NC(=O)c5cc(NC(=O)c6cc(NC(=O)CCCNC(=O)c7cc(NC(=O)c8cc(NC(=O)CCNC(=O)c9cc(NC(=O)c%10cc(NC(=O)c%11cc(NC(=O)c%12nccn%12C)cn%11C)cn%10C)cn9C)cn8C)cn7C)cn6C)cn5C)cn4C)cn3C)cn2C)cn1C [Polyamide 1002, ImPPPβPPγPPPβPPPβDp] | > 10 | 
19 | CN(CCCN)CCCNC(=O)CCNC(=O)c1cc(NC(=O)c2cc(NC(=O)c3cc(NC(=O)c4cc(NC(=O)c5cc(NC(=O)[C@H](N)CCNC(=O)c6cc(NC(=O)c7cc(NC(=O)c8cc(NC(=O)c9cc(NC(=O)c%10nccn%10C)cn9C)cn8C)cn7C)cn6C)cn5C)cn4C)cn3C)cn2C)cn1C [Polyamide 1006, ImPPPPγNH2PPPPPβTa] | > 10 | inactive
20 | CN(C)CCCNC(=O)c1cc(NC(=O)c2cc(NC(=O)CCNC(=O)c3cc(NC(=O)c4cc(NC(=O)c5cc(NC(=O)CCNC(=O)c6cc(NC(=O)c7cc(NC(=O)CCCNC(=O)CCNC(=O)c8cc(NC(=O)c9cc(NC(=O)CCNC(=O)c%10cc(NC(=O)c%11cc(NC(=O)c%12cc(NC(=O)c%13nccn%13C)cn%12C)cn%11C)cn%10C)cn9C)cn8C)cn7C)cn6C)cn5C)cn4C)cn3C)cn2C)cn1C [Polyamide 1056, ImPPPβPPβγPPβPPPβPPDp] | > 10 | 
21 | CN(C)CCCNC(=O)CCNC(=O)c1cc(NC(=O)c2cc(NC(=O)c3nc(NC(=O)c4cc(NC(=O)c5nc(NC(=O)CCCNC(=O)c6cc(NC(=O)c7nc(NC(=O)c8cc(NC(=O)c9cc(NC(=O)c%10nccn%10C)cn9C)cn8C)cn7C)cn6C)cn5C)cn4C)cn3C)cn2C)cn1C [Polyamide 1019, ImPPIPγIPIPPβDp] | > 10 | 
